Data set [1] can be described thus: partition coefficient log p (octanol/water). The data set is classed as physicochemical.
Data set [2] concerns red spider mite Tetranychus urticae. The experiment in a line: Tetranychus Test (OP resistant/dipping treatment). In kind it is in vivo. As to conditions: after 7 days, concentration of active compound 0.01%, all developmental stages, bean plants, OP resistant. On the procedure: Tetranychus Test (OP resistant/dipping treatment)
Solvent: 7 parts by weight of dimethylformamide
(§1) Emulsifier: 1 part by weight of alkylaryl polyglycol ether
To produce a suitable preparation of active compound, 1 part by weight of active compound is mixed with the stated amount of solvent and the stated amount of emulsifier, and the concentrate is diluted with emulsifier-containing water to the desired concentrations.
Bean plants (Phaseolus vulgaris) which are heavily infested with all developmental stages of the red spider mite Tetranychus urticae are dipped in a preparation of the active compound of the desired concentration.
After the desired time, the action in percent is determined. 100% means that all the spider mites have been killed, 0% means that none of the spider mites have been killed.

The subject of data set [3] is mustard beetle larvae (Phaedon cochleariae). The experiment in a line: Phaedon Larvae Test. The data set is classed as in vivo. The settings on record: concentration of active compound 0.1%, cabbage leaves, read-out: degree of mortality. As to the method:
Solvent: 3 parts by weight of dimethylformamide
as §1
To produce a suitable preparation of active compound, 1 part by weight of active compound is mixed with the stated amount of solvent and the stated amount of emulsifier, and the concentrate is diluted with water to the desired concentration.
After the desired time, the destruction in % is determined. 100% means that all the beetle larvae have been killed; 0% means that none of the beetle larvae have been killed.

Consider 11 molecules from patent US6051589A, “Diphenyloxazoline derivatives” (Bayer Aktiengesellschaft, priority 1994, dated 2000).

Molecules are shown by their SMILES. Like-named read-outs stand apart in the source and are kept apart here.

Broadly, the mortality is the percentage killed.

On to `CC(C)(C)c1ccc(C2COC(c3c(F)c(F)c(F)c(F)c3F)=N2)cc1` (stereo not shown) [Example 3], for which the logD in data set [1] (pH 7.5, read-out: log p) turned out to be 5.12.
Regarding `CC(C)(C)c1ccc(C2COC(c3cc(F)c(Cl)cc3Cl)=N2)cc1` (stereo not shown) [Example 6], the logD in data set [1] (pH 7.5, read-out: log p) was 5.65.
As to `CC(C)Cc1ccc(C2COC(c3c(F)c(F)cc(F)c3F)=N2)cc1` (stereo not shown) [Example 12], the logD in data set [1] (pH 7.5, read-out: log p) came out at 5.35.
Same read-out and setting: the same measure for `CC(C)(C)c1ccc(C2COC(c3c(F)cc(C(F)(F)F)cc3F)=N2)cc1` (stereo not shown) [Example 9]: 5.13.
Take `CC(C)(C)c1ccc(C2COC(c3cc(F)c(F)c(F)c3F)=N2)cc1` (stereo not shown) [Example 4]: the logD in data set [1] (pH 7.5, read-out: log p) was 4.78.
The molecule `CC(C)(C)c1ccc(C2COC(c3cc(F)c(F)cc3F)=N2)cc1` (stereo not shown) [Example 5] registered a degree of mortality in data set [2] of 98%. Also, in data set [1] (pH 7.5, read-out: log p), the logD amounted to 4.78.
In the case of `CC(C)(C)c1ccc(C2COC(c3c(F)cc(F)cc3F)=N2)cc1` (stereo not shown) [Example 7], the logD in data set [1] (pH 7.5, read-out: log p) turned out to be 4.43.
Take `CC(C)(C)c1ccc(C2COC(c3c(F)ccc(F)c3F)=N2)cc1` (stereo not shown) [Example 8]: the logD in data set [1] (pH 7.5, read-out: log p) was determined as 4.45.
For `Cc1ccc(C2COC(c3c(F)c(F)cc(F)c3F)=N2)cc1` (stereo not shown) [Example 14], in data set [1] (pH 7.5, read-out: log p), the logD is 3.69.
With `CC(C)(C)c1ccc(C2COC(c3c(F)c(F)cc(F)c3F)=N2)cc1` (stereo not shown) [Example 1, 4-(4-tert-butylphenyl)-2-(2,3,5,6-tetrafluorophenyl)-1,3-oxazoline], in data set [2], the degree of mortality is listed as 98%. In addition, the logD in data set [1] (pH: 7.4, read-out: partition coefficient log p (octanol/water)) stood at 4.7. Moreover, the mortality at 0.1 % in data set [3] turned out to be 65%.
Consider `COc1c(F)cc(F)c(F)c1C1=NC(c2ccc(C(C)(C)C)cc2)CO1` (stereo not shown) [Example 2], for which the degree of mortality in data set [2] is given as 98%. The logD in data set [1] (pH 7.5, read-out: log p) worked out at 4.59. The mortality at 0.1 % in data set [3] amounted to 65%.
